Measured values taken from PMC8850458, “The AUTOTAC chemical biology platform for targeted protein degradation via the autophagy-lysosome system” (Nature Communications, 2022).
Several values for one entry are separate records, joined by “and”; a condition that tells them apart may be missing. Equal entries are not always repeated. Where two headings read alike, the source gives them in different places. Each block holds one compound with its values, some of them ahead of it.

What was measured:
tauP301L = tauP301L (Homo sapiens, UniProt P10636, P618L); assay: WB degradation of tauP301L in SH-SY5Y-tauP301L cells; assay type: cell-based; conditions: for Tau normalized to GAPDH and control, AVG %: average of N=3
Outline: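 Lysates in SDS/LDS or Laemmli sample buffer were separated by SDS-PAGE and blotted to PVDF. Target protein was detected with primary antibodies, HRP secondary and ECL on X-ray film, and degradation quantified by band densitometry.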

[1] = test system: tauP301L inclusion bodies; assay: ICC of TauP301L-GFP autophagic targeting in HeLa cells; assay type: cell-based; conditions: Fig. 5k, compound +HCQ; for TauP301L-GFP / LC3 colocalization, cells counted per 50 cells (individual replicates): count out of 50 cells
Protocol: Fig. 5 Selective degradation of pathological aggregation-prone tau species by aggregate-binding AUTOTAC. a–c WB in SH-SY5Y-tauP301L cells treated with PBA-1105, PBA, or YTK-1105 at the indicated concentrations. d Densitometry of (a, b, and c) (n = 3 biologically independent experiments). e–g Same as (a–c) but with Anle138b-F105, Anle138b, or YTK-105. (h) Densitometry of (e, f, and g) (n = 3 biologically independent experiments). i WB in SH-SY5Y-tauP301L cells treated with PBA-1105 (0.1 μM) at the indicated time points. j ICC of HeLa cells expressing recombinant TauP301L-GFP and treated with the indicated compounds (1 μM, 24 h) and HCQ (10 μM, 24 h). Scale bar, 10 μm. k Quantification of (j) (n = 3 biologically independent experiments each counting 50 cells). l In vivo oligomerization assay in SH-SY5Y-tauP301L cells treated with okadaic acid (15 nM, 24 h) and the indicated compounds (0.1 μM, 24 h). m Triton X-100-fractionation assay in SH-SY5Y-tauP301L cells treated with a combination of HCQ (10 μM, 24 h), okadaic acid (15 nM, 24 h) or PBA-1105 (0.1 μM, 24 h). Data are presented as mean values ± SD where relevant. P-values (from a two-sided unpaired t test): **P < 0.00821. Source data are provided with this paper.
Cells were cultured on coverslips coated with poly-L-lysine (Sigma) to observe cellular localization of proteins. Using 4% paraformaldehyde in PBS (pH 7.4), the cells were fixed for 15 min at room temperature and washed three times for 5 min with PBS. After fixing, the cells were permeabilized with 0.5% Triton X-100 in PBS solution for 15 min and washed three times with PBS for 5 min. The cells were blocked containing 2% BSA in PBS solution for 1 h at room temperature. Subsequently, the cells were incubated with primary antibody diluted in 2% BSA/PBS solution overnight at 4 °C, followed by washing the cells three times for 10 min with PBS and incubated with Alexa Fluor-conjugated secondary antibody diluted in 2% BSA/PBS for 30 min at room temperature. Using a DAPI-containing mounting medium (Vector Laboratories), the coverslips were mounted on glass slides. Confocal images were taken by laser scanning confocal microscope 510 Meta (Zeiss) and analyzed by Zeiss LSM Image Browser (ver. 4.2.0.121). […] Quantification results are shown as mean ± S.D. or S.E.M. of three independent experiments

p62 = molecular target: T1, p62 (Homo sapiens, UniProt Q13501); assay: In vitro p62 oligomerization assay; assay type: biochemical; conditions: HEK293T lysate
T1 construct: expressed in transfected cells; host or cells: HEK293T, transient; whole lysate used
Protocol: HEK293T cells were transiently transfected with a plasmid encoding p62-myc/his fusion proteins. Cells were resuspended in lysis buffer [50 mM HEPES (pH 7.4), 0.15 M KCl, 0.1% Nonidet P-40), 10% glycerol, containing a mixture of protease inhibitors and phosphatase inhibitor (Abcam)]. To lyse the cells, 10 cycles of freezing and thawing was done, followed by centrifugation at 13,000 × g for 20 min at 4 °C. Using a BCA assay, the protein concentration of the supernatant was measured. A total of 1 μg of protein was incubated with 1 mM of p62-ZZ ligands in the presence of 100 μM bestatin (Enzo) at room temperature for 2 h. After incubation, each sample was mixed with non-reducing 4X LDS sample buffer, heated at 95 °C for 10 min, and resolved using 4–20% gradient SDS-PAGE (Bio-Rad). To monitor the conversion of p62 monomers into oligomers or aggregates, IB assay was performed using anti-myc antibody.

[2] = test system: endogenous wild-type murine tau; conditions: for AVG (%) Insoluble mTau / AVG (%) Soluble mTau: control 100
[3] = molecular target: T2, estrogen receptor beta (ERβ) (Homo sapiens, UniProt Q92731); assay: Western blot degradation of ERβ; assay type: cell-based; conditions: for ERβ band normalized to control, AVG % / ERβ band (PHTPP) normalized to GAPDH and to control, percentage: 293T; for ERβ band normalized to control, AVG % / ERβ band (PHTPP) normalized to GAPDH and to control, percentage / DC50: 24 h; for ERβ band (PHTPP) normalized to GAPDH and to control, percentage: single experiments
T2 construct: Targeted autophagic degradation of endogenous oncoproteins by AUTOTAC; endogenous in cells; host or cells: HEK293T, ACHN, MCF7
Protocol: Adherent cells were washed with phosphate-buffered saline (PBS) and cell pellets were lysed in SDS-based sample buffer (277.8 mM Tris-HCI, pH 6.8, 4.4% LDS, 44.4% (v/v) glycerol) containing beta-mercaptoethanol. Alternatively, cell pellets or protein supernatants were lysed in 5X Laemmli sample buffer. Whole-cell lysates were separated using SDS-PAGE, and transferred onto polyvinyllidene difluoride membranes at 100 V for 2 h at 4 °C. The membrane was incubated with a blocking solution consisting 4% skim milk in PBS solution for 30 min at room temperature and incubated with primary antibodies overnight, followed by incubation with host-specific HRP-conjugated secondary antibodies (1:10000 dilution). For signal detection, the membrane was developed with a mixture of ECL solution (Thermo Fisher Scientific) using X-ray films. Densitometry of developed bands was measured and analyzed with ImageJ (NIH, Bethesda).

[4] = densitometry, dosage degradation, SH-SY5Y-Tau-TiFC, 1 nM
[5] = densitometry, dosage degradation, SH-SY5Y-Tau-TiFC, 1 nM, read-out: (Tau normalized to GAPDH) normalized to control, percentage (individual replicates N=1, N=2, N=3)
[6] = densitometry, dosage degradation, SH-SY5Y-Tau-TiFC, 10 nM
[7] = densitometry, dosage degradation, SH-SY5Y-Tau-TiFC, 100 nM
[8] = densitometry, dosage degradation, SH-SY5Y-Tau-TiFC, 1 uM
[9] = densitometry, dosage degradation, SH-SY5Y-Tau-TiFC, 10uM

T2 sequence (Q92731 whole entry): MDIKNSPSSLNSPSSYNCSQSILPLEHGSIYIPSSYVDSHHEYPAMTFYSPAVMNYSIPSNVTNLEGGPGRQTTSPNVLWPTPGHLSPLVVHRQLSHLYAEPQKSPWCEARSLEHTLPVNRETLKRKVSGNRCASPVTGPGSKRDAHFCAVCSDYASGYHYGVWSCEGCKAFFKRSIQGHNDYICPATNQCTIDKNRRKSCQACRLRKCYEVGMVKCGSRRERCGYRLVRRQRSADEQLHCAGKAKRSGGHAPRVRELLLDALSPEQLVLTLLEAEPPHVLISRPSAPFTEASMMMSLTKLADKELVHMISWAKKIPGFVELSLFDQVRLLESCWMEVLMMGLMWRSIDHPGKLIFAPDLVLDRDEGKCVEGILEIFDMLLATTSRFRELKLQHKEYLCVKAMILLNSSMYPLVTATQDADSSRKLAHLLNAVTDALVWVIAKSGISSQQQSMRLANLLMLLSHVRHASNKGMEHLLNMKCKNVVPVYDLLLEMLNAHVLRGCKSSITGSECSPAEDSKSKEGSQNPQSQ
Sequence of tauP301L (P10636 1-441 isoform P10636-8 P301L): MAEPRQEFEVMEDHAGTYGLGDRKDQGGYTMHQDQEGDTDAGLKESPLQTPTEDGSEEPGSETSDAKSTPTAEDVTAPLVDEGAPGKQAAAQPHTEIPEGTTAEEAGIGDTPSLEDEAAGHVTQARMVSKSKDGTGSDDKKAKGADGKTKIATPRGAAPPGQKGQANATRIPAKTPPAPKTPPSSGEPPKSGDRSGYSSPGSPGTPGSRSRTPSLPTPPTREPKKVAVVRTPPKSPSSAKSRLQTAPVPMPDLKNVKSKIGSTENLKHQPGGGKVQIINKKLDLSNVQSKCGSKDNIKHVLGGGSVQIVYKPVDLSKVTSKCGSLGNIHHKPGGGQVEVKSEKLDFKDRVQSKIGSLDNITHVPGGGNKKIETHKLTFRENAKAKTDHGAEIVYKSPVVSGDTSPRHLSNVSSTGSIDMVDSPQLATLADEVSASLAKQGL
T1 sequence (Q13501 whole entry): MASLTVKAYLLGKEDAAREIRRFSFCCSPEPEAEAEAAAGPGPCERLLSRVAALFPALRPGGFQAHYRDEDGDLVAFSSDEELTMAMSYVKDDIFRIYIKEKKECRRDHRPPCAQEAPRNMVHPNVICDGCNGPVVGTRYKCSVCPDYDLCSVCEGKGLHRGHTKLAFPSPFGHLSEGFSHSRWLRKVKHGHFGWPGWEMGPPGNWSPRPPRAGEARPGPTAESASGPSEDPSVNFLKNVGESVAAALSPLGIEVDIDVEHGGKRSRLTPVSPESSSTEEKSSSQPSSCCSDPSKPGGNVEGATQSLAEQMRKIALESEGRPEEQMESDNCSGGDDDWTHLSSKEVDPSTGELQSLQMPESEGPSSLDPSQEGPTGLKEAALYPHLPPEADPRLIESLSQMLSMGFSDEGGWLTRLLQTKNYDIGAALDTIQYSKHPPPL

Tau normalized to GAPDH and control, AVG % (tauP301L; [4]): 80.1686%
remaining activity at 0.001 µM (tauP301L; [5]): 76.8%
Tau normalized to GAPDH and control, AVG % (tauP301L; [6]): 93.9777%
Tau normalized to GAPDH and control, AVG % (tauP301L; [7]): 90.7287%
Tau normalized to GAPDH and control, AVG % (tauP301L; [8]): 84.0643%
Tau normalized to GAPDH and control, AVG % (tauP301L; [9]): 93.7866%
remaining activity at 10 µM (tauP301L; densitometry, dosage degradation, SH-SY5Y-Tau-TiFC, 10uM, read-out: (Tau normalized to GAPDH) normalized to control, percentage (individual replicates N=1, N=2, N=3)): 87%
SMILES: O=C(O)CCCc1ccccc1 [4-PBA, 4-phenylbutyric acid]
TauP301L-GFP / LC3 colocalization, AVG of cells per 50 cells [1]: 13.6667
TauP301L-GFP / LC3 colocalization, percentage AVG [1]: 27.3333 percentage
TauP301L-GFP / LC3 colocalization, cells counted per 50 cells (individual replicates) ([1]; listed as PBA): 12 and 22 and 7

SMILES: O=C(CCCc1ccccc1)NCCOCCOCCOCCNCc1ccc(OCc2ccccc2)c(OCc2ccccc2)c1 [PBA-1105]
DC50 (tauP301L; SH-SY5Y-tauP301L cells): 1 to 10 nM
Dmax,24 hr of tauP301L degradation (tauP301L; SH-SY5Y-tauP301L cells): 100 nM
Tau normalized to GAPDH and control, AVG % (tauP301L; [4]): 46.0558%
remaining activity at 0.001 µM (tauP301L; [5]): 45%
Tau normalized to GAPDH and control, AVG % (tauP301L; [6]): 19.6838%
Tau normalized to GAPDH and control, AVG % (tauP301L; [7]): 23.7212%
Tau normalized to GAPDH and control, AVG % (tauP301L; [8]): 30.8722%
Tau normalized to GAPDH and control, AVG % (tauP301L; densitometry, dosage degradation, SH-SY5Y-Tau-TiFC, 2.5uM): 20.4143%
remaining activity at 2.5 µM (tauP301L; densitometry, dosage degradation, SH-SY5Y-Tau-TiFC, 2.5uM, read-out: (Tau normalized to GAPDH) normalized to control, percentage (individual replicates N=1, N=2, N=3)): 19.2%
Tau normalized to GAPDH and control, AVG % (tauP301L; densitometry, dosage degradation, SH-SY5Y-Tau-TiFC, 5uM): 12.549%
Tau normalized to GAPDH and control, AVG % (tauP301L; [9]): 73.3109%
p62 self-oligomerization (p62): triggered its self-oligomerization
TauP301L-GFP / LC3 colocalization, AVG of cells per 50 cells [1]: 33
TauP301L-GFP / LC3 colocalization, percentage AVG [1]: 66 percentage
TauP301L-GFP / LC3 colocalization, cells counted per 50 cells (individual replicates) [1]: 33 and 41 and 25
AVG (%) Insoluble mTau ([2]; 20 mg/kg): 110.945%
AVG (%) Soluble mTau ([2]; 20 mg/kg): 97.7163%
AVG (%) Insoluble mTau ([2]; 50 mg/kg): 56.7728%
AVG (%) Soluble mTau ([2]; 50 mg/kg): 133.669%
endogenous wild-type murine tau in detergent-soluble or -insoluble fractions ([2]; mouse, in vivo): did not degrade

p62 self-oligomerization (p62): induced self-oligomerization of p62
ERβ band normalized to control, AVG % ([3]; 1nM): 52.5102%
ERβ band (PHTPP) normalized to GAPDH and to control, percentage ([3]; 1nM): 58.6192% and 52.1272% and 46.7843%
ERβ band normalized to control, AVG % ([3]; 10nM): 17.5552%
ERβ band (PHTPP) normalized to GAPDH and to control, percentage ([3]; 10nM): 19.5411% and 16.0071% and 17.1174%
ERβ band normalized to control, AVG % ([3]; 100nM): 4.912%
ERβ band (PHTPP) normalized to GAPDH and to control, percentage ([3]; 100nM): 9.1943% and 5.039% and 0.5025%
ERβ band normalized to control, AVG % ([3]; 1uM): 9.556%
ERβ band normalized to control, AVG % ([3]; 2.5uM): 4.237%
ERβ band (PHTPP) normalized to GAPDH and to control, percentage ([3]; 2.5uM): 4.5765% and 5.279% and 2.856%
DC50 ([3]; ACHN renal carcinoma cells, read-out: DC50 of ERβ): < 100 nM
Dmax, 24 hr (concentration of maximal clearance at the 24 h mark) of ERβ ([3]; HEK293T cells): 10 to 100 nM
DC50 ([3]; HEK293T cells, read-out: DC50 (half-degrading concentration) of ERβ): ~2 nM and 1.48 nM
degradation of ERβ under RNA interference of either p62 or ATG5 ([3]; HEK293T, 0.1 μM 24 h, siRNA 40 nM 48 h): completely abolished
persistence of ERβ degradation post-washout ([3]; MCF7, MG132 1 μM, compound 500 nM 24 h, then washout): at least 8 h
DC50 and Dmax values of ERβ degradation ([3]; MCF7 cells, proteasomal inhibition (MG132 1 μM, 24 h)): subnanomolar
DC50 ([3]; MCF-7 breast cancer cells, read-out: DC50 of ERβ): < 100 nM
SMILES: O[C@H](CNCCOCCOCCOc1ccc(-c2c(-c3ccccc3)nn3c(C(F)(F)F)cc(C(F)(F)F)nc23)cc1)COc1ccc(OCc2ccccc2)c(OCCCc2ccccc2)c1 [PHTPP-1304]
